In PubChem BioAssay AID2060500 (Molecular Pharmacology Branch, DTP, NCI, 2025):

Test system: 596521-263-R-J1-PDC complex spheroids, viability % of control
Test: Anticancer human tumor 596521-263-R-J1-PDC patient-derived soft tissue sarcoma cell line growth inhibition [GQUAD]
Conditions: for IC50: curve of first compound; for viability, T/C: stronger effect = lower value
In short: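 Viability of tumor cells grown as complex spheroids with endothelial and stromal cells, exposed to drug combinations. Top concentration at or near clinical Cmax (else 10 microM), diluted in half-log increments.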

[1] = second compound 0.0316 µM, first compound 0.0316 µM
[2] = second compound 0.0316 µM, first compound 0.1 µM
[3] = second compound 0.0316 µM, first compound 0.316 µM
[4] = second compound 0.0316 µM, first compound 1 µM
[5] = second compound 0.0316 µM, first compound 3.16 µM
[6] = second compound 0.0316 µM, first compound 10 µM
[7] = second compound 0.1 µM, first compound 0.0316 µM
[8] = second compound 0.1 µM, first compound 0.1 µM
[9] = second compound 0.1 µM, first compound 0.316 µM
[10] = second compound 0.1 µM, first compound 1 µM
[11] = second compound 0.1 µM, first compound 3.16 µM
[12] = second compound 0.1 µM, first compound 10 µM
[13] = second compound 0.316 µM, first compound 0.0316 µM
[14] = second compound 0.316 µM, first compound 0.1 µM
[15] = second compound 0.316 µM, first compound 0.316 µM
[16] = second compound 0.316 µM, first compound 1 µM
[17] = second compound 0.316 µM, first compound 3.16 µM
[18] = second compound 0.316 µM, first compound 10 µM
[19] = second compound 1 µM, first compound 0.0316 µM
[20] = second compound 1 µM, first compound 0.1 µM
[21] = second compound 1 µM, first compound 0.316 µM
[22] = second compound 1 µM, first compound 1 µM
[23] = second compound 1 µM, first compound 3.16 µM
[24] = second compound 1 µM, first compound 10 µM
[25] = second compound 3.16 µM, first compound 0.0316 µM
[26] = second compound 3.16 µM, first compound 0.1 µM
[27] = second compound 3.16 µM, first compound 0.316 µM
[28] = second compound 3.16 µM, first compound 1 µM
[29] = second compound 3.16 µM, first compound 3.16 µM
[30] = second compound 3.16 µM, first compound 10 µM
[31] = second compound 10 µM, first compound 0.0316 µM
[32] = second compound 10 µM, first compound 0.1 µM
[33] = second compound 10 µM, first compound 0.316 µM
[34] = second compound 10 µM, first compound 1 µM
[35] = second compound 10 µM, first compound 3.16 µM
[36] = second compound 10 µM, first compound 10 µM
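Note: spheroids exposed to drugs for 7 days before viability reading.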
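Throughout, for viability, T/C: 100% = DMSO vehicle control viability.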

C=CCn1c(=O)c2cnc(Nc3ccc(N4CCN(C)CC4)cc3)nc2n1-c1cccc(C(C)(C)O)n1 + Cc1cnc(CNC(=O)c2c(=O)c3ccc(N4CCCN(C)CC4)nc3n3c2sc2ccccc23)cn1
IC50 (second compound 0.0316 µM): 769 nM
IC50 (second compound 0.1 µM): 481 nM
IC50 (second compound 0.316 µM): 343 nM
IC50 (second compound 1 µM): 592 nM
IC50 (second compound 3.16 µM): 196 nM
IC50 (second compound 10 µM): < 31.6 nM
viability, T/C [1]: 88.4%
viability, T/C [2]: 79.2%
viability, T/C [3]: 61.2%
viability, T/C [4]: 48.8%
viability, T/C [5]: 32.6%
viability, T/C [6]: 31.4%
viability, T/C [7]: 78.3%
viability, T/C [8]: 72.9%
viability, T/C [9]: 55.3%
viability, T/C [10]: 40.8%
viability, T/C [11]: 38.3%
viability, T/C [12]: 40.8%
viability, T/C [13]: 84.8%
viability, T/C [14]: 62.2%
viability, T/C [15]: 50.7%
viability, T/C [16]: 40.9%
viability, T/C [17]: 38.5%
viability, T/C [18]: 26.8%
viability, T/C [19]: 62.9%
viability, T/C [20]: 60%
viability, T/C [21]: 58.4%
viability, T/C [22]: 41.9%
viability, T/C [23]: 36.5%
viability, T/C [24]: 24.3%
viability, T/C [25]: 50.6%
viability, T/C [26]: 54.3%
viability, T/C [27]: 49.1%
viability, T/C [28]: 39.1%
viability, T/C [29]: 32.7%
viability, T/C [30]: 25.6%
viability, T/C [31]: 43.4%
viability, T/C [32]: 12.9%
viability, T/C [33]: 36.4%
viability, T/C [34]: 33.8%
viability, T/C [35]: 20.8%
viability, T/C [36]: 0.23%

Cc1[nH]c2ccccc2c1CCNCc1ccc(/C=C/C(=O)NO)cc1 + Cc1cnc(CNC(=O)c2c(=O)c3ccc(N4CCCN(C)CC4)nc3n3c2sc2ccccc23)cn1
IC50 (second compound 0.0316 µM): 44.4 nM
IC50 (second compound 0.1 µM): 57.5 nM
IC50 (second compound 0.316 µM): 49.3 nM
IC50 (second compound 1 µM): 39.4 nM
IC50 (second compound 3.16 µM): 18.5 nM
IC50 (second compound 10 µM): < 0.999 nM
viability, T/C (second compound 0.0316 µM, first compound 0.000999 µM): 103%
viability, T/C (second compound 0.0316 µM, first compound 0.00316 µM): 88.9%
viability, T/C (second compound 0.0316 µM, first compound 0.00999 µM): 83.1%
viability, T/C [1]: 58.4%
viability, T/C (second compound 0.0316 µM, first compound 0.0999 µM): 29.2%
viability, T/C [3]: 2%
viability, T/C (second compound 0.1 µM, first compound 0.000999 µM): 99.9%
viability, T/C (second compound 0.1 µM, first compound 0.00316 µM): 81.8%
viability, T/C (second compound 0.1 µM, first compound 0.00999 µM): 79.7%
viability, T/C [7]: 61.8%
viability, T/C (second compound 0.1 µM, first compound 0.0999 µM): 40.6%
viability, T/C [9]: 2.65%
viability, T/C (second compound 0.316 µM, first compound 0.000999 µM): 83.2%
viability, T/C (second compound 0.316 µM, first compound 0.00316 µM): 73.9%
viability, T/C (second compound 0.316 µM, first compound 0.00999 µM): 67.8%
viability, T/C [13]: 63.3%
viability, T/C (second compound 0.316 µM, first compound 0.0999 µM): 34.3%
viability, T/C [15]: 2.74%
viability, T/C (second compound 1 µM, first compound 0.000999 µM): 65.2%
viability, T/C (second compound 1 µM, first compound 0.00316 µM): 67.5%
viability, T/C (second compound 1 µM, first compound 0.00999 µM): 67.8%
viability, T/C [19]: 48%
viability, T/C (second compound 1 µM, first compound 0.0999 µM): 36.8%
viability, T/C [21]: 0.29%
viability, T/C (second compound 3.16 µM, first compound 0.000999 µM): 49.9%
viability, T/C (second compound 3.16 µM, first compound 0.00316 µM): 54.4%
viability, T/C (second compound 3.16 µM, first compound 0.00999 µM): 54%
viability, T/C [25]: 47.4%
viability, T/C (second compound 3.16 µM, first compound 0.0999 µM): 30.5%
viability, T/C [27]: 0.21%
viability, T/C (second compound 10 µM, first compound 0.000999 µM): 41.9%
viability, T/C (second compound 10 µM, first compound 0.00316 µM): 19.3%
viability, T/C (second compound 10 µM, first compound 0.00999 µM): 43.1%
viability, T/C [31]: 37.8%
viability, T/C (second compound 10 µM, first compound 0.0999 µM): 0.34%
viability, T/C [33]: 0.24%

O=C(NO)c1cnc(N2CCN(S(=O)(=O)c3ccc4ccccc4c3)CC2)nc1 + Cc1cnc(CNC(=O)c2c(=O)c3ccc(N4CCCN(C)CC4)nc3n3c2sc2ccccc23)cn1
IC50 (second compound 0.0316 µM): 111 nM
IC50 (second compound 0.1 µM): 102 nM
IC50 (second compound 0.316 µM): 110 nM
IC50 (second compound 1 µM): 104 nM
IC50 (second compound 3.16 µM): < 31.6 nM
IC50 (second compound 10 µM): < 31.6 nM
viability, T/C [1]: 74.7%
viability, T/C [2]: 53.5%
viability, T/C [3]: 13%
viability, T/C [4]: 0.6%
viability, T/C [5]: 0.3%
viability, T/C [6]: 0.28%
viability, T/C [7]: 71.5%
viability, T/C [8]: 50.3%
viability, T/C [9]: 17.4%
viability, T/C [10]: 0.78%
viability, T/C [11]: 0.32%
viability, T/C [12]: 0.29%
viability, T/C [13]: 66.5%
viability, T/C [14]: 52.4%
viability, T/C [15]: 19.1%
viability, T/C [16]: 0.46%
viability, T/C [17]: 0.21%
viability, T/C [18]: 0.18%
viability, T/C [19]: 53.9%
viability, T/C [20]: 50.6%
viability, T/C [21]: 19.6%
viability, T/C [22]: 0.17%
viability, T/C [23]: 0.77%
viability, T/C [24]: 1.29%
viability, T/C [25]: 48.6%
viability, T/C [26]: 42.5%
viability, T/C [27]: 16.1%
viability, T/C [28]: 0.13%
viability, T/C [29]: 0.4%
viability, T/C [30]: 0.75%
viability, T/C [31]: 23.6%
viability, T/C [32]: 13.2%
viability, T/C [33]: 0.25%
viability, T/C [34]: 0.16%
viability, T/C [35]: 0.89%
viability, T/C [36]: 0.27%
